Article PMC10798532, “Enhanced catalytic performance of penicillin G acylase by covalent immobilization onto functionally-modified magnetic Ni0.4Cu0.5Zn0.1Fe2O4 nanoparticles” (PLOS ONE, 2024)
Where a name gives a salt, the structure may show the parent alone.

Tested on: T1, Penicillin G acylase (PGA)
T1 construct: gene pac; alpha and beta subunits arise from one precursor; E. coli is only a guess (docking used PDB 1GM8)
Experiment: initial hydrolysis rates, Lineweaver-Burk; 6-APA by PDAB colorimetry at […] nm
Type: biochemical
Settings: free enzyme; 20 °C; PBS, pH of kinetic run not printed (optimum pH 8.0); substrate 0.01-0.05 mol/L

SMILES: CC1(C)S[C@@H]2[C@H](NC(=O)Cc3ccccc3)C(=O)N2[C@H]1C(=O)O [Penicillin G potassium salt]
- Km: 22.7 mM
